Some results are limits rather than exact numbers.

The experiment concerns MDA-MB-231 human breast cancer cells. Nature of the experiment: Cell proliferation assay (CellTiter-Glo, 72 hours treatment). The experiment is classed as cell-based. To be noted: Homo sapiens; MDA-MB-231 cells, 72 hours at 37° C., CellTiter-Glo; read-out: MDA-MB-231 cell proliferation assay (IC50). The method in brief: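 IC50 categories: under 100 nM +++, 100–1000 nM ++, above 1000 nM +, derived by sigmoidal curve fitting of CellTiter-Glo luminescence. Cells plated at 2,500 per well, dosed the following day and exposed 72 h at 37 °C versus DMSO control.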
(ATP-based viability assays read luminescence as a measure of living cells.)
For `O[C@@]12C=C[C@@H](c3ccccc3)[C@]1(c1ccc(Br)cc1)Oc1cc(Cl)cnc12` (racemic) [133F, Rac-(5aR,6S,8aR)-5a-(4-bromophenyl)-3-chloro-6-phenyl-5a,6-dihydro-8aH-cyclopenta[4,5]furo[3,2-b]pyridin-8a-ol], the IC50 was above 1000 nM. For the compound `COc1cncc2c1[C@]1(O)[C@H](O)[C@H](C(=O)N3CCC(F)(F)CC3)[C@@H](c3ccccc3)[C@]1(c1ccc(Br)cc1)O2` (racemic) [135F, Rac-((4bS,5R,6R,7S,7aR)-7a-(4-bromophenyl)-4b,5-dihydroxy-4-methoxy-7-phenyl-4b,6,7,7a-tetrahydro-5H-cyclopenta[4,5]furo[2,3-c]pyridin-6-yl)(4,4-difluoropiperidin-1-yl)methanone], the IC50 was below 100 nM. For `COC(=O)[C@H]1[C@@H](O)[C@@]2(O)c3c(cc(Cl)nc3OC)O[C@@]2(c2ccc(Br)cc2)[C@@H]1c1ccccc1` (racemic) [136F, Rac-Methyl (5aR,6S,7R,8R,8aS)-5a-(4-bromophenyl)-3-chloro-8,8a-dihydroxy-1-methoxy-6-phenyl-5a,7,8,8a-tetrahydro-6H-cyclopenta[4,5]furo[3,2-c]pyridine-7-carboxylate], the IC50 is below 100 nM.

As to `COc1nc(Cl)cc2c1[C@]1(O)[C@H](O)[C@H](C(=O)N(C)C)[C@@H](c3ccccc3)[C@]1(c1ccc(Br)cc1)O2` (racemic) [137F, Rac-(5aR,6S,7R,8R,8aS)-5a-(4-bromophenyl)-3-chloro-8,8a-dihydroxy-1-methoxy-N,N-dimethyl-6-phenyl-5a,7,8,8a-tetrahydro-6H-cyclopenta[4,5]furo[3,2-c]pyridine-7-carboxamide], the IC50 is below 100 nM.

Turning to `COc1nc(Cl)cc2c1[C@]1(O)[C@H](O)[C@H](CN(C)C)[C@@H](c3ccccc3)[C@]1(c1ccc(Br)cc1)O2` (racemic) [138F, Rac-(5aR,6S,7S,8R,8aS)-5a-(4-bromophenyl)-3-chloro-7-((dimethylamino)methyl)-1-methoxy-6-phenyl-5a,6,7,8-tetrahydro-8aH-cyclopenta[4,5]furo[3,2-c]pyridine-8,8a-diol], the IC50 was below 100 nM. On to `COc1nccc2c1[C@]1(O)[C@H](O)[C@H](CN(C)C)[C@@H](c3ccccc3)[C@]1(c1ccc(C#N)cc1)O2` (racemic) [141F, Rac-4-((5aR,6S,7S,8R,8aS)-7-((dimethylamino)methyl)-8,8a-dihydroxy-1-methoxy-6-phenyl-6,7,8,8a-tetrahydro-5aH-cyclopenta[4,5]furo[3,2-c]pyridin-5a-yl)benzonitrile], for which the IC50 lay in the range of 100 to 1000 nM.

For `COc1nc(Cl)cc2c1[C@]1(O)[C@H](O)[C@H](CN(C)C)[C@@H](c3ccccc3)[C@]1(c1ccc(Cl)cc1)O2` (racemic) [142F, Rac-(5aR,6S,7S,8R,8aS)-3-chloro-5a-(4-chlorophenyl)-7-((dimethylamino)methyl)-1-methoxy-6-phenyl-5a,6,7,8-tetrahydro-8aH-cyclopenta[4,5]furo[3,2-c]pyridine-8,8a-diol], the IC50 is below 100 nM.

With `COc1nc(Cl)cc2c1[C@]1(O)[C@H](O)[C@H](CN(C)C)[C@@H](c3ccccc3)[C@]1(c1ccc(C(F)F)cc1)O2` (racemic) [143F, Rac-(5aR,6S,7S,8R,8aS)-3-chloro-5a-(4-(difluoromethyl)phenyl)-7-((dimethylamino)methyl)-1-methoxy-6-phenyl-5a,6,7,8-tetrahydro-8aH-cyclopenta[4,5]furo[3,2-c]pyridine-8,8a-diol], the IC50 was below 100 nM. The result for `COc1nc(Cl)cc2c1[C@]1(O)[C@H](O)[C@H](CN(C)C)[C@@H](c3ccccc3)[C@]1(c1ccc(C(F)(F)F)cc1)O2` (racemic) [144F, Rac-(5aR,6S,7S,8R,8aS)-3-chloro-7-((dimethylamino)methyl)-1-methoxy-6-phenyl-5a-(4-(trifluoromethyl)phenyl)-5a,6,7,8-tetrahydro-8aH-cyclopenta[4,5]furo[3,2-c]pyridine-8,8a-diol] reads below 100 nM. The value for `COc1nc(C#N)cc2c1[C@]1(O)[C@H](O)[C@H](CN(C)C)[C@@H](c3ccccc3)[C@]1(c1ccc(C(F)F)cc1)O2` (racemic) [146F, Rac-(5aR,6S,7S,8R,8aS)-5a-(4-(difluoromethyl)phenyl)-7-((dimethylamino)methyl)-8,8a-dihydroxy-1-methoxy-6-phenyl-5a,7,8,8a-tetrahydro-6H-cyclopenta[4,5]furo[3,2-c]pyridine-3-carbonitrile] was below 100 nM; that for `COc1nccc2c1[C@]1(O)[C@H](O)[C@H](CN(C)C)[C@@H](c3ccccc3)[C@]1(c1ccc(C(F)F)cc1)O2` (racemic) [148F, Rac-(5aR,6S,7S,8R,8aS)-5a-(4-(difluoromethyl)phenyl)-7-((dimethylamino)methyl)-1-methoxy-6-phenyl-5a,6,7,8-tetrahydro-8aH-cyclopenta[4,5]furo[3,2-c]pyridine-8,8a-diol] was above 1000 nM; that for `COc1nccc2c1[C@]1(O)[C@H](O)[C@H](CN(C)C)[C@@H](c3ccccc3)[C@]1(c1ccc(C(F)(F)F)cc1)O2` (racemic) [149F, Rac-(5aR,6S,7S,8R,8aS)-7-((dimethylamino)methyl)-1-methoxy-6-phenyl-5a-(4-(trifluoromethyl)phenyl)-5a,6,7,8-tetrahydro-8aH-cyclopenta[4,5]furo[3,2-c]pyridine-8,8a-diol] was above 1000 nM. The result for `CNc1cc2c(c(OC)n1)[C@]1(O)[C@H](O)[C@H](CN(C)C)[C@@H](c3ccccc3)[C@]1(c1ccc(C#N)cc1)O2` (racemic) [150F, Rac-4-((5aR,6S,7S,8R,8aS)-7-((dimethylamino)methyl)-8,8a-dihydroxy-1-methoxy-3-(methylamino)-6-phenyl-6,7,8,8a-tetrahydro-5aH-cyclopenta[4,5]furo[3,2-c]pyridin-5a-yl)benzonitrile] reads below 100 nM; that for `COc1nc(Cl)cc2c1[C@]1(O)[C@H](O)[C@H](CN3CCOCC3)[C@@H](c3ccccc3)[C@]1(c1ccc(C#N)cc1)O2` (racemic) [152F, Rac-4-((5aR,6S,7S,8R,8aS)-3-chloro-8,8a-dihydroxy-1-methoxy-7-(morpholinomethyl)-6-phenyl-6,7,8,8a-tetrahydro-5aH-cyclopenta[4,5]furo[3,2-c]pyridin-5a-yl)benzonitrile], below 100 nM. For the compound `COc1nc(C#N)cc2c1[C@]1(O)[C@H](O)[C@H](CN3CCC(F)(F)C3)[C@@H](c3ccccc3)[C@]1(c1ccc(C#N)cc1)O2` (racemic) [153F, Rac-(5aR,6S,7S,8R,8aS)-5a-(4-cyanophenyl)-7-((3,3-difluoropyrrolidin-1-yl)methyl)-8,8a-dihydroxy-1-methoxy-6-phenyl-5a,7,8,8a-tetrahydro-6H-cyclopenta[4,5]furo[3,2-c]pyridine-3-carbonitrile], the IC50 lay within 100 to 1000 nM. For `COc1nc(C#N)cc2c1[C@]1(O)[C@H](O)[C@H](CN3CCCC(F)(F)C3)[C@@H](c3ccccc3)[C@]1(c1ccc(C#N)cc1)O2` (racemic) [154F, Rac-(5aR,6S,7S,8R,8aS)-5a-(4-cyanophenyl)-7-((3,3-difluoropiperidin-1-yl)methyl)-8,8a-dihydroxy-1-methoxy-6-phenyl-5a,7,8,8a-tetrahydro-6H-cyclopenta[4,5]furo[3,2-c]pyridine-3-carbonitrile], the IC50 lay in the range of 100 to 1000 nM. For the compound `COc1nc(C#N)cc2c1[C@]1(O)[C@H](O)[C@H](CNC(C)(C)C)[C@@H](c3ccccc3)[C@]1(c1ccc(C#N)cc1)O2` (racemic) [155F, Rac-(5aR,6S,7S,8R,8aS)-7-((tert-butylamino)methyl)-5a-(4-cyanophenyl)-8,8a-dihydroxy-1-methoxy-6-phenyl-5a,7,8,8a-tetrahydro-6H-cyclopenta[4,5]furo[3,2-c]pyridine-3-carbonitrile], the IC50 was 100 to 1000 nM.

For `COc1nc(C#N)cc2c1[C@]1(O)[C@H](O)[C@H](CN3CCC(F)CC3)[C@@H](c3ccccc3)[C@]1(c1ccc(Br)cc1)O2` (racemic) [156Fa, Rac-(5aR,6S,7S,8R,8aS)-5a-(4-bromophenyl)-7-((4-fluoropiperidin-1-yl)methyl)-8,8a-dihydroxy-1-methoxy-6-phenyl-5a,7,8,8a-tetrahydro-6H-cyclopenta[4,5]furo[3,2-c]pyridine-3-carbonitrile], the IC50 is below 100 nM. The result for `COc1nc(Cl)cc2c1[C@]1(O)[C@H](O)[C@H](CN3CCC(F)CC3)[C@@H](c3ccccc3)[C@]1(c1ccc(C#N)cc1)O2` (racemic) [156Fb, Rac-4-((5aR,6S,7S,8R,8aS)-3-chloro-7-((4-fluoropiperidin-1-yl)methyl)-8,8a-dihydroxy-1-methoxy-6-phenyl-6,7,8,8a-tetrahydro-5aH-cyclopenta[4,5]furo[3,2-c]pyridin-5a-yl)benzonitrile] reads below 100 nM; that for `COc1nc(C#N)cc2c1[C@]1(O)[C@H](O)[C@H](CN3CCC(F)CC3)[C@@H](c3ccccc3)[C@]1(c1ccc(C#N)cc1)O2` (racemic) [156Fc, Rac-(5aR,6S,7S,8R,8aS)-5a-(4-cyanophenyl)-7-((4-fluoropiperidin-1-yl)methyl)-8,8a-dihydroxy-1-methoxy-6-phenyl-5a,7,8,8a-tetrahydro-6H-cyclopenta[4,5]furo[3,2-c]pyridine-3-carbonitrile], below 100 nM. For the compound `COc1nc(C#N)cc2c1[C@]1(O)[C@H](O)[C@H](CN3CCC(F)(F)CC3)[C@@H](c3ccccc3)[C@]1(c1ccc(Br)cc1)O2` (racemic) [157Fa, Rac-(5aR,6S,7S,8R,8aS)-5a-(4-bromophenyl)-7-((4,4-difluoropiperidin-1-yl)methyl)-8,8a-dihydroxy-1-methoxy-6-phenyl-5a,7,8,8a-tetrahydro-6H-cyclopenta[4,5]furo[3,2-c]pyridine-3-carbonitrile], the IC50 lay within 100 to 1000 nM.

For `COc1nc(Cl)cc2c1[C@]1(O)[C@H](O)[C@H](CN3CCC(F)(F)CC3)[C@@H](c3ccccc3)[C@]1(c1ccc(C#N)cc1)O2` (racemic) [157Fb, Rac-4-((5aR,6S,7S,8R,8aS)-3-chloro-7-((4,4-difluoropiperidin-1-yl)methyl)-8,8a-dihydroxy-1-methoxy-6-phenyl-6,7,8,8a-tetrahydro-5aH-cyclopenta[4,5]furo[3,2-c]pyridin-5a-yl)benzonitrile], the IC50 is 100 to 1000 nM.
